Reference: patent US20140357713A1, “ANTIMICROBIAL COMPOUNDS AND METHODS OF USE” (NexMed Holdings, Inc., priority 2012, published 2014)

What was measured:
Assay in all cases: Extended time kill study, Example 34 (0 to 24 h)
Format in all cases: cell-based
Aspergillus niger = system: Aspergillus niger
Outline: (§1)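 Strain suspensions prepared as for MIC testing were mixed 1:1 with compound solution at higher multiples of MIC. Samples taken over 0 to 24 h were diluted in test medium and plated on agar, and colonies were counted after 24–48 h incubation.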

Candida albicans = system: Candida albicans
Outline: as §1

Escherichia coli = system: Escherichia coli
Outline: as §1

Pseudomonas aeruginosa = system: Pseudomonas aeruginosa
Outline: as §1

SMILES: CCCCCCCCCCCCOC(=O)C(C)NC.Cl (stereo not shown) [Nex-59, Dodecyl 2-(methylamino)propanoate hydrochloride]
- Viable counts in Log10 CFU/mL (Aspergillus niger; 1 × MIC, 1 h): 5.34 Log10 CFU/mL
- Viable counts in Log10 CFU/mL (Aspergillus niger; 1 × MIC, 2 h): 5.48 Log10 CFU/mL
- Viable counts in Log10 CFU/mL (Aspergillus niger; 1 × MIC, 4 h): 5.08 Log10 CFU/mL
- Viable counts in Log10 CFU/mL (Aspergillus niger; 1 × MIC, 6 h): 5.30 Log10 CFU/mL
- Viable counts in Log10 CFU/mL (Aspergillus niger; 1 × MIC, 24 h): 3.78 Log10 CFU/mL
- Viable counts in Log10 CFU/mL (Aspergillus niger; 1 × MIC, 0 h): 5.41 Log10 CFU/mL
- Viable counts in Log10 CFU/mL (Aspergillus niger; 2 × MIC, 1 h): 5.11 Log10 CFU/mL
- Viable counts in Log10 CFU/mL (Aspergillus niger; 2 × MIC, 2 h): 4.70 Log10 CFU/mL
- Viable counts in Log10 CFU/mL (Aspergillus niger; 2 × MIC, 4 h): 4.48 Log10 CFU/mL
- Viable counts in Log10 CFU/mL (Aspergillus niger; 2 × MIC, 6 h): 3.95 Log10 CFU/mL
- Viable counts in Log10 CFU/mL (Aspergillus niger; 2 × MIC, 24 h): <2 Log10 CFU/mL
- Viable counts in Log10 CFU/mL (Aspergillus niger; 2 × MIC, 0 h): 5.36 Log10 CFU/mL
- Viable counts in Log10 CFU/mL (Aspergillus niger; 4 × MIC, 1 h): 5.08 Log10 CFU/mL
- Viable counts in Log10 CFU/mL (Aspergillus niger; 4 × MIC, 2 h): 4.48 Log10 CFU/mL
- Viable counts in Log10 CFU/mL (Aspergillus niger; 4 × MIC, 4 h): 3.85 Log10 CFU/mL
- Viable counts in Log10 CFU/mL (Aspergillus niger; 4 × MIC, 6 h): 4.04 Log10 CFU/mL
- Viable counts in Log10 CFU/mL (Aspergillus niger; 4 × MIC, 24 h): <2 Log10 CFU/mL
- Viable counts in Log10 CFU/mL (Aspergillus niger; 4 × MIC, 0 h): 5.29 Log10 CFU/mL
- Viable counts in Log10 CFU/mL (Candida albicans; 1 × MIC, 1 h): 5.41 Log10 CFU/mL
- Viable counts in Log10 CFU/mL (Candida albicans; 1 × MIC, 2 h): 5.24 Log10 CFU/mL
- Viable counts in Log10 CFU/mL (Candida albicans; 1 × MIC, 4 h): 4.96 Log10 CFU/mL
- Viable counts in Log10 CFU/mL (Candida albicans; 1 × MIC, 6 h): 4.40 Log10 CFU/mL
- Viable counts in Log10 CFU/mL (Candida albicans; 1 × MIC, 24 h): >6 Log10 CFU/mL
- Viable counts in Log10 CFU/mL (Candida albicans; 1 × MIC, 0 h): 5.68 Log10 CFU/mL
- Viable counts in Log10 CFU/mL (Candida albicans; 2 × MIC, 1 h): 3.48 Log10 CFU/mL
- Viable counts in Log10 CFU/mL (Candida albicans; 2 × MIC, 2 h): 3.00 Log10 CFU/mL
- Viable counts in Log10 CFU/mL (Candida albicans; 2 × MIC, 4 h): 3.00 Log10 CFU/mL
- Viable counts in Log10 CFU/mL (Candida albicans; 2 × MIC, 6 h): <2.70 Log10 CFU/mL
- Viable counts in Log10 CFU/mL (Candida albicans; 2 × MIC, 24 h): <1 Log10 CFU/mL
- Viable counts in Log10 CFU/mL (Candida albicans; 2 × MIC, 0 h): 5.75 Log10 CFU/mL
- Viable counts in Log10 CFU/mL (Candida albicans; 4 × MIC, 1 h): <3 Log10 CFU/mL
- Viable counts in Log10 CFU/mL (Candida albicans; 4 × MIC, 2 h): <3 Log10 CFU/mL
- Viable counts in Log10 CFU/mL (Candida albicans; 4 × MIC, 4 h): <2.70 Log10 CFU/mL
- Viable counts in Log10 CFU/mL (Candida albicans; 4 × MIC, 6 h): <2.70 Log10 CFU/mL
- Viable counts in Log10 CFU/mL (Candida albicans; 4 × MIC, 24 h): <1 Log10 CFU/mL
- Viable counts in Log10 CFU/mL (Candida albicans; 4 × MIC, 0 h): 5.63 Log10 CFU/mL
- Viable counts, Escherichia coli time kill study (Escherichia coli; 1 × MIC, 1 h): 1 Log10 CFU/mL
- Viable counts, Escherichia coli time kill study (Escherichia coli; 1 × MIC, 2 h): <1 Log10 CFU/mL
- Viable counts, Escherichia coli time kill study (Escherichia coli; 1 × MIC, 4 h): 1.85 Log10 CFU/mL
- Viable counts, Escherichia coli time kill study (Escherichia coli; 1 × MIC, 6 h): 2.81 Log10 CFU/mL
- Viable counts, Escherichia coli time kill study (Escherichia coli; 1 × MIC, 24 h): 7.91 Log10 CFU/mL
- Viable counts, Escherichia coli time kill study (Escherichia coli; 1×MIC, time 0): 5 Log10 CFU/mL
- Viable counts, Escherichia coli time kill study (Escherichia coli; 2 × MIC, 1 h): <1 Log10 CFU/mL
- Viable counts, Escherichia coli time kill study (Escherichia coli; 2 × MIC, 2 h): <1 Log10 CFU/mL
- Viable counts, Escherichia coli time kill study (Escherichia coli; 2 × MIC, 4 h): <1 Log10 CFU/mL
- Viable counts, Escherichia coli time kill study (Escherichia coli; 2 × MIC, 6 h): <1 Log10 CFU/mL
- Viable counts, Escherichia coli time kill study (Escherichia coli; 2 × MIC, 24 h): <1 Log10 CFU/mL
- Viable counts, Escherichia coli time kill study (Escherichia coli; 2 × MIC, time 0): 5.12 Log10 CFU/mL
- Viable counts, Escherichia coli time kill study (Escherichia coli; 4 × MIC, 1 h): <1 Log10 CFU/mL
- Viable counts, Escherichia coli time kill study (Escherichia coli; 4 × MIC, 2 h): <1 Log10 CFU/mL
- Viable counts, Escherichia coli time kill study (Escherichia coli; 4 × MIC, 4 h): <1 Log10 CFU/mL
- Viable counts, Escherichia coli time kill study (Escherichia coli; 4 × MIC, 6 h): <1 Log10 CFU/mL
- Viable counts, Escherichia coli time kill study (Escherichia coli; 4 × MIC, 24 h): <1 Log10 CFU/mL
- Viable counts, Escherichia coli time kill study (Escherichia coli; 4 × MIC, time 0): 5.04 Log10 CFU/mL
- Viable counts, Pseudomonas aeruginosa time kill study (Pseudomonas aeruginosa; 1 × MIC, 1 h): <1 Log10 CFU/mL
- Viable counts, Pseudomonas aeruginosa time kill study (Pseudomonas aeruginosa; 1 × MIC, 2 h): <1 Log10 CFU/mL
- Viable counts, Pseudomonas aeruginosa time kill study (Pseudomonas aeruginosa; 1 × MIC, 4 h): <1 Log10 CFU/mL
- Viable counts, Pseudomonas aeruginosa time kill study (Pseudomonas aeruginosa; 1 × MIC, 6 h): <1 Log10 CFU/mL
- Viable counts, Pseudomonas aeruginosa time kill study (Pseudomonas aeruginosa; 1 × MIC, 24 h): <1 Log10 CFU/mL
- Viable counts, Pseudomonas aeruginosa time kill study (Pseudomonas aeruginosa; 1×MIC, time 0): 5.18 Log10 CFU/mL
- Viable counts, Pseudomonas aeruginosa time kill study (Pseudomonas aeruginosa; 2 × MIC, 1 h): <1 Log10 CFU/mL
- Viable counts, Pseudomonas aeruginosa time kill study (Pseudomonas aeruginosa; 2 × MIC, 2 h): <1 Log10 CFU/mL
- Viable counts, Pseudomonas aeruginosa time kill study (Pseudomonas aeruginosa; 2 × MIC, 4 h): <1 Log10 CFU/mL
- Viable counts, Pseudomonas aeruginosa time kill study (Pseudomonas aeruginosa; 2 × MIC, 6 h): <1 Log10 CFU/mL
- Viable counts, Pseudomonas aeruginosa time kill study (Pseudomonas aeruginosa; 2 × MIC, 24 h): <1 Log10 CFU/mL
- Viable counts, Pseudomonas aeruginosa time kill study (Pseudomonas aeruginosa; 2 × MIC, time 0): 5.16 Log10 CFU/mL
- Viable counts, Pseudomonas aeruginosa time kill study (Pseudomonas aeruginosa; 4 × MIC, 1 h): <1 Log10 CFU/mL
